# What was measured:
# acylamino acid racemase [1] = assay: Influences of metal ions on enzyme activities; format: biochemical, Streptomyces sp. Y-53; conditions: for Relative enzyme activity, Additive Concentration 1 mM / Relative enzyme activity, Additive Concentration 10 mM: no additives taken as 100, cobalt chloride excluded; for Relative enzyme activity, Additive Concentration 1 mM: final concentration 1 mM; for Relative enzyme activity, Additive Concentration 10 mM: final concentration 10 mM
# Description: Enzyme activities are determined by means of a mixed reaction system comprising 50 μl of a solution of the enzyme, 40 μl of a solution of the substrate, 10 μl of an L-aminoacylase solution and 400 μl of a 50 mM Tris-HCl buffer (pH 7.5 ). As the enzyme solution, a solution prepared by dissolving an acylamino acid racemase standard sample in a Tris-HCl buffer (pH 7.5 ) to 1 to 0.2 unit/ml was used; as the L-aminoacylase solution, a solution prepared by dissolving an L-aminoacylase standard sample (a commercially available product such as that produced by Sigma Co. may be used, but the L-aminoacylase extracted and purified from Y-53 strain was used in the present invention) in a Tris-HCl buffer (pH 7.5) to 40 to 8 units/ml.
# The above solutions are mixed together by the sequential addition of the Tris-HCl buffer, substrate solution, L-aminoacylase solution and enzyme solution in this order, and reaction is initiated at 30° C. simultaneously with the addition of the enzyme solution.
# For the determination of enzyme activities, the amount of methionine produced in the reaction system is determined by high performance liquid chromatography, and the enzyme activity corresponding to the production of 1 μmol/min. methionine is expressed as 1 unit. When a ymM concentration of methionine has been produced in the reaction system during a reaction time of x minutes, the activity (αunit) of the enzyme in 50 μl solution is calculated by the following equation: [formula]
# In Table 4, the enzyme activities are presented in relative activities on the basis of the values obtained in the case of no additives as taken as 100.
# acylamino acid racemase [2] = assay: Substrate specificity of acylamino acid racemase (enzyme activity determination coupled with aminoacylase); format: biochemical, Streptomyces sp. Y-53; conditions: amount of produced methionine taken as 100, free amino acids checked by amino acid oxidase and HPLC; for Relative Activity (D-form substrate): L-aminoacylase coupled; for Relative Activity (L-form substrate): D-aminoacylase of Y-53 strain coupled
# Description: Note that the relative activities in Table 3, where N^α -acylamino acids were used as substrates, were determined by the method of enzyme activity determination described in the term .circle.3 , with the values representing the found amount (mM) of the produced α-amino acids corresponding to respective substrates as calculated on the basis of the amount of produced methionine taken as 100. When the substrate was an L-N^α -acylamino acid, D-aminoacylase as produced by Y-53 strain was used in place of L-aminoacylase.
# [3] = concentration not singled out (1 mM and 10 mM examined)
Relative Activity (D-form substrate) (acylamino acid racemase [2]),Structure (SMILES),"Relative enzyme activity, Additive Concentration 1 mM (acylamino acid racemase [1])","Relative enzyme activity, Additive Concentration 10 mM (acylamino acid racemase [1])",also measured
0,C[C@@H](N)C(=O)O [D-alanine],,,
0,CC(C)C[C@@H](N)C(=O)O [D-leucine],,,
0,CSCC[C@@H](N)C(=O)O [D-methionine],,,
0,N[C@H](Cc1ccccc1)C(=O)O [D-phenylalanine],,,
0,N[C@H](Cc1c[nH]c2ccccc12)C(=O)O [D-tryptophan],,,
0,CC(C)[C@@H](N)C(=O)O [D-valine],,,
33,CC(=O)N[C@H](C)C(=O)O [N-acetyl-D-alanine],,,
33,CC[C@H](C)[C@@H](NC(C)=O)C(=O)O [N-acetyl-D-allo-isoleucine],,,
37,CC(=O)N[C@H](CC(C)C)C(=O)O [N-acetyl-D-leucine],,,
100,CSCC[C@@H](NC(C)=O)C(=O)O [N-acetyl-D-methionine],,,
64,CC(=O)N[C@H](Cc1ccccc1)C(=O)O [N-acetyl-D-phenylalanine],,,
35,CC(=O)N[C@@H](C(=O)O)C(C)C [N-acetyl-D-valine],,,
14,C[C@@H](NC(=O)c1ccccc1)C(=O)O [N-benzoyl-D-alanine],,,
80,CC(C)[C@@H](NC(=O)CCl)C(=O)O [N-chloroacetyl-D-valine],,,

# Second part, the molecule before the results:
Structure (SMILES),Relative Activity (D-form substrate) (acylamino acid racemase [2]),"Relative enzyme activity, Additive Concentration 1 mM (acylamino acid racemase [1])","Relative enzyme activity, Additive Concentration 10 mM (acylamino acid racemase [1])",also measured
O.O.O.O.O.O.O.O.O.O.O.O.O.O.O.O.O=S(=O)([O-])[O-].O=S(=O)([O-])[O-].O=S(=O)([O-])[O-].[Al+3].[Al+3] [Al2 (SO4)3 .16H2 O],,79,0,Effect on enzyme activity (in words) (acylamino acid racemase [1]; at 10 mM): inhibit the enzyme activity
O.O.[Ba+2].[Cl-].[Cl-] [BaCl2 .2H2 O],,85,120,
[Ca+2].[Cl-].[Cl-] [CaCl2],,95,100,
O.O.O.O.O.O.[Cl-].[Cl-].[Co+2] [CoCl2 .6H2 O],,,140,Effect on enzyme activity (in words) (acylamino acid racemase [1]; at 10 mM): hardly activate the enzyme; Effect on enzyme activity (in words) (acylamino acid racemase [1]; low concentrations (around 1 mM)): noticeable activating effect
O.O.O.O.O.O.[Cl][Cr]([Cl])[Cl] [CrCl3 .6H2 O],,96,100,
O.O.O.O.O.O=S(=O)([O-])[O-].[Cu+2] [CuSO4 .5H2 O],,0,0,Effect on enzyme activity (in words) (acylamino acid racemase [1]; [3]): noticeable inhibitory effect
"O=C(O)CN(CCN(CC(=O)O)CC(=O)O)CC(=O)O [EDTA, reference compound]",,68,0,Effect on enzyme activity (in words) (acylamino acid racemase [1]; at 10 mM): noticeable inhibitory effect
O.O.O.O.O.O.O.O=S(=O)([O-])[O-].[Fe+2] [FeSO4 .7H2 O],,100,560,
[Cl-].[K+] [KCl],,110,130,
C[C@H](N)C(=O)O [L-alanine],,,,Relative Activity (L-form substrate) (acylamino acid racemase [2]): 0
CC(C)C[C@H](N)C(=O)O [L-leucine],,,,Relative Activity (L-form substrate) (acylamino acid racemase [2]): 0
CSCC[C@H](N)C(=O)O [L-methionine],,,,Relative Activity (L-form substrate) (acylamino acid racemase [2]): 0
N[C@@H](Cc1ccccc1)C(=O)O [L-phenylalanine],,,,Relative Activity (L-form substrate) (acylamino acid racemase [2]): 0
N[C@@H](Cc1c[nH]c2ccccc12)C(=O)O [L-tryptophan],,,,Relative Activity (L-form substrate) (acylamino acid racemase [2]): 0
CC(C)[C@H](N)C(=O)O [L-valine],,,,Relative Activity (L-form substrate) (acylamino acid racemase [2]): 0
[Cl-].[Li+] [LiCl],,100,120,
O.O.O.O.O.O.O.O=S(=O)([O-])[O-].[Mg+2] [MgSO4 .7H2 O],,890,,Effect on enzyme activity (in words) (acylamino acid racemase [1]; [3]): the activating effect is greater at 10 mM than at 1 mM
O.O.O.O.O.O.O.O=S(=O)([O-])[O-].[Mn+2] [MnSO4 .7H2 O],,780,,
CC(=O)N[C@H](Cc1c[nH]c2ccccc12)C(=O)O [N-acetyl-D-tryptophan],10,,,

Structure (SMILES),Relative Activity (D-form substrate) (acylamino acid racemase [2]),"Relative enzyme activity, Additive Concentration 1 mM (acylamino acid racemase [1])","Relative enzyme activity, Additive Concentration 10 mM (acylamino acid racemase [1])",also measured
CC(=O)N[C@@H](C)C(=O)O [N-acetyl-L-alanine],,,,Relative Activity (L-form substrate) (acylamino acid racemase [2]): 21
CC(=O)N[C@@H](CC(C)C)C(=O)O [N-acetyl-L-leucine],,,,Relative Activity (L-form substrate) (acylamino acid racemase [2]): 74
CSCC[C@H](NC(C)=O)C(=O)O [N-acetyl-L-methionine],,,,Relative Activity (L-form substrate) (acylamino acid racemase [2]): 100
CC(=O)N[C@@H](Cc1ccccc1)C(=O)O [N-acetyl-L-phenylalanine],,,,Relative Activity (L-form substrate) (acylamino acid racemase [2]): 84
CC(=O)N[C@@H](Cc1c[nH]c2ccccc12)C(=O)O [N-acetyl-L-tryptophan],,,,Relative Activity (L-form substrate) (acylamino acid racemase [2]): 8
CC(=O)N[C@H](C(=O)O)C(C)C [N-acetyl-L-valine],,,,Relative Activity (L-form substrate) (acylamino acid racemase [2]): 19
O=C(CCl)N[C@H](Cc1ccccc1)C(=O)O [N-chloroacetyl-D-phenylalanine],90,,,
O=C(CCl)N[C@@H](Cc1ccccc1)C(=O)O [N-chloroacetyl-L-phenylalanine],,,,Relative Activity (L-form substrate) (acylamino acid racemase [2]): 112
CC(C)[C@H](NC(=O)CCl)C(=O)O [N-chloroacetyl-L-valine],,,,Relative Activity (L-form substrate) (acylamino acid racemase [2]): 105
CSCC[C@@H](NC=O)C(=O)O [N-formyl-D-methionine],40,,,
CSCC[C@H](NC=O)C(=O)O [N-formyl-L-methionine],,,,Relative Activity (L-form substrate) (acylamino acid racemase [2]): 63
[Cl-].[Na+] [NaCl],,100,130,
O.O.[Na+].[Na+].[O]=[Mo](=[O])([O-])[O-] [NaMoO4 .2H2 O],,96,0,Effect on enzyme activity (in words) (acylamino acid racemase [1]; at 10 mM): inhibit the enzyme activity
O.O.O.O.O.O.O=S(=O)([O-])[O-].[Ni+2] [NiSO4 .6H2 O],,460,0,
[Cl][Pb][Cl] [PbCl2],,78,100,
O=S(=O)([O-])[O-].[Sn+2] [SnSO4],,92,100,
O.O.O.O.O.O.[Cl-].[Cl-].[Sr+2] [SrCl2 .6H2 O],,94,110,
O.O.O.O.O.O.O.O=S(=O)([O-])[O-].[Zn+2] [ZnSO4 .7H2 O],,810,80,
